What was measured:
IP3K = settings: [ATP] = 10 μM; cited from earlier work
human IP6K2 = target: T1, human IP6K2 (Homo sapiens, UniProt Q9UHH9); assay: IP6K2 inhibition assay (ADP Glo kinase assay); assay type: biochemical; settings: purified human IP6K2, 10 μM IP6, 10 μM ATP, 8-dose, triplicate, mean ± SEM
T1 construct: made in house; host or cells: Sf9 insect cells (baculovirus)
T1 sequence (Q9UHH9 1-426): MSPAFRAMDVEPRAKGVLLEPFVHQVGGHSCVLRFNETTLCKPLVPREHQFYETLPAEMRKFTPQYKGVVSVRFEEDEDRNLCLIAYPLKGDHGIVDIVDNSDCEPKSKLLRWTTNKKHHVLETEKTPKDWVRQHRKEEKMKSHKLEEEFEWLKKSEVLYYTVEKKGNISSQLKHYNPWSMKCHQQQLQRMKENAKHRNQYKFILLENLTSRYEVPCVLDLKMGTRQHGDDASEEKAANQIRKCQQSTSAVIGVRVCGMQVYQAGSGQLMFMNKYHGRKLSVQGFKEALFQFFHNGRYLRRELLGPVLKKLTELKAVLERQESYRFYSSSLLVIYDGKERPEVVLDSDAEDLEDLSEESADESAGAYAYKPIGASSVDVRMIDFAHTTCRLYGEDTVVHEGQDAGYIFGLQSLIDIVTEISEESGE
Experimental: Full-length human IP6K2 cDNA was subcloned into pFASTBAC1 plasmid (Gibco) with an N-terminal FLAG epitope sequence, and baculovirus was generated according to the manufacturer’s instructions. Sf9 insect cells were infected with baculovirus and incubated for 72 h. The cells were resuspended in lysis buffer [20 mM Tris–HCl (pH 7.9), 500 mM NaCl, 4 mM MgCl2, 0.4 mM EDTA, 2 mM DTT, 20% glycerol, 1 mM PMSF, and protease inhibitor cocktail (Roche)] and then disrupted with a Dounce homogeniser (pestle A, 3 series of 10 strokes with 10 min interval).
IP6K2 activity was measured using ADP Glo assay kit (Promega). All kinase assays were performed in low volume 384-well white plates (784075, Greiner-bioone) with a final volume of 5 μL. The reaction buffer contained 2 ng Flag-hIP6K2, 10 μM IP6, and 10 μM ATP in kinase buffer (50 mM Tris, 10 mM MgCl2, 2.5 mM DTT, 0.02% Triton-X-100, pH 6.8)[26]. For dose-dependent inhibition assay, 8 serial 2-fold dilutions of test compounds were prepared in DMSO. The final DMSO concentration was 5% in each reaction. The test compounds (5X, 25% DMSO in 1X kinase buffer) were dispensed to each well, and 2.5 X IP6K2 in kinase buffer were added. After 15 min incubation at room temperature, 2.5 X concentrations of IP6 and ATP were added to the plate. The reaction plate was incubated in a 37 °C incubator for 30 min. Next, the reactions were quenched with 5 μL of ADP Glo reagent for 40 min to deplete the remaining ATP. To convert the remaining ADP to ATP, 10 μl of detection reagent were added and incubated for 30–60 min. The luminescence of the final reactants was measured using the Mithras LB940 plate reader from Berthold. Samples were run in triplicate and the activity (%) was calculated using the following equations; Activity (%) = 100 × (μexperimental–μnegative)/(μpositive–μnegative). Negative control was DSMO-treated reaction. IC50 value was estimated using a logistic regression model with R package.

purified CYP3A4 = purified CYP3A4 (Homo sapiens, UniProt P08684); assay: Spectral binding titration of purified CYP3A4; settings: Type I or Type II spectral change
Experimental: Purified CYP3A4 enzymes were diluted to 1 µM in 100 mM potassium phosphate buffer (pH 7.4) and then divided into two glass cuvettes. […] The binding titration was analysed using GraphPad Prism software (GraphPad, Inc., La Jolla, CA, USA).

IP6K = settings: [ATP] = 1 mM; cited from earlier work

Sequence of purified CYP3A4 (P08684 whole entry): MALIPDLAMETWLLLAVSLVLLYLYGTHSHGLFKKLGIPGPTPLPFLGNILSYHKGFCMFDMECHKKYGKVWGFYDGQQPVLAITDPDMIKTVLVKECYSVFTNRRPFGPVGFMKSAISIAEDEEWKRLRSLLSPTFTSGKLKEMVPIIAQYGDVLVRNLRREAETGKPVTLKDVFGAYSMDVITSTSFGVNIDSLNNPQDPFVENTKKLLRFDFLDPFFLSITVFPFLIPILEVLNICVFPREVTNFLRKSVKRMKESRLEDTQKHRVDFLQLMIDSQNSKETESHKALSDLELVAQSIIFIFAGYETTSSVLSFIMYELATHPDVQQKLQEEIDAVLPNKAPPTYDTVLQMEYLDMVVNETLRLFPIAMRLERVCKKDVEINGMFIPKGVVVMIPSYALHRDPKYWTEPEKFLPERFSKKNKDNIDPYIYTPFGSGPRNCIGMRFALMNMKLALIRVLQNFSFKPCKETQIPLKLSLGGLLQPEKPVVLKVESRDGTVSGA

**Q.** With `O=[N+]([O-])c1ccc(CNc2nc(NCc3cccc(C(F)(F)F)c3)nc3[nH]cnc23)cc1` [TNP, N^6-[(4-nitrophenyl)methyl]-N^2-[[3-(trifluoromethyl)phenyl]methyl]-9H-purine-2,6-diamine] as the molecule, how does the IC50 (IP3K) read?
**A.** 18 µM

**Q.** What about the IC50 (human IP6K2) of the same molecule?
**A.** 4.5 ± 0.4 µM

**Q.** And the CYP3A4 binding mode (purified CYP3A4)?
**A.** Type I

**Q.** And the IC50 (IP6K)?
**A.** 0.47 µM

Source: article PMC8667942 (Journal of Enzyme Inhibition and Medicinal Chemistry, 2021)
